Results: patent US20030032000A1, “Method for analyzing cellular events” (Signature BioScience Inc., priority 2001, published 2003)

Key:
[1] = system: CHOk1 cells; assay: MCS cellular activity assay in un-transfected CHOk1 wild-type cells; settings: various concentrations of carbachol, signal integrated over 50 MHz to 1 GHz
[2] = system: calcium flux; assay: MCS detection of calcium flux modifiers in wild-type and transfected cells; format: cell-based, Chinese Hampster
Protocol: Ability to detect other calcium flux modifies was tested using ionomycin (an ionophore).

| SMILES | integrated MCS signal over time versus buffer [1] | inhibition of ionomycin effect, MCS [2] |
| --- | --- | --- |
| C[N+](C)(C)CCOC(N)=O [carbachol] | essentially no change in signal over time | – |
| C/C=C(/C)C(=O)O[C@H]1C(C)=C2[C@H]([C@@H]1OC(=O)CCCCCCC)[C@@](C)(OC(C)=O)C[C@H](OC(=O)CCC)[C@@]1(O)[C@H]2OC(=O)[C@@]1(C)O [thapsigargin] | – | inhibit ionomycin |
